According to patent US20230406831A1, “COMPOUNDS AND METHODS OF INHIBITING BACTERIAL CHAPERONIN SYSTEMS” (THE TRUSTEES OF INDIANA UNIVERSITY, priority 2020, published 2023):
Where two headings read alike, the source gives them in different places.

Tests used:
[1] = tested on: S. aureus; assay: S. aureus bacterial proliferation assay; assay type: cell-based; conditions: for EC50: Staphylococcus aureus, read-out: S. aureus Proliferation EC50
Outline: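 Growth in BHI with 25 mg/L Ca2+ and 12.5 mg/L Mg2+; log-phase cultures diluted to OD600 0.017 and exposed to compounds at 100 μM–46 nM (3-fold series). Stagnant 37 °C incubation, OD600 read at 6–8 h, corrected with bacteria-free plates; EC50 by variable-slope nonlinear regression.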

[2] = target: T1, GroEL/ES (Escherichia coli, UniProt P0A6F5); assay: GroEL/ES-mediated dMDH refolding assay; assay type: biochemical, E. coli
T1 construct: made in house; host or cells: GroEL in E. coli DH5a; GroES in E. coli BL21 (DE3)
T1 sequence (P0A6F5 2-548): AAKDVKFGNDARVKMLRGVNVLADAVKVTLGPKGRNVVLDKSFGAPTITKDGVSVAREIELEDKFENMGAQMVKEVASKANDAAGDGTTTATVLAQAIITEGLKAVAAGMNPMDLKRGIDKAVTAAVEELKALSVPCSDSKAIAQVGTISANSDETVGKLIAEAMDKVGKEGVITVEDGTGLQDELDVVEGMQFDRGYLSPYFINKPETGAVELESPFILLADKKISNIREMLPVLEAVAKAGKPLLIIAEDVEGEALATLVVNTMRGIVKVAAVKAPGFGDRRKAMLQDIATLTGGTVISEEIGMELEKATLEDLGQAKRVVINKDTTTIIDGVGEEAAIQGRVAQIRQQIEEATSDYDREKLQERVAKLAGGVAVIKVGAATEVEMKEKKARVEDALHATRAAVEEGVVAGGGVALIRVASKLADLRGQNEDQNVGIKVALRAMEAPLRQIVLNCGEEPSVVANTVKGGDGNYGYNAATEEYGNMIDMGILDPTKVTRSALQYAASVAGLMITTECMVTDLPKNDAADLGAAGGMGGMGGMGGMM
Outline: (§1)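 Pre-formed chaperonin–denatured pig heart MDH complexes (50 nM GroEL or HSP60, 60 nM GroES or HSP10, 12 nM dMDH) refolded with 1 mM ATP and compound (100 μM–46 nM) at 37 °C, ~20-40 min for GroEL/ES or ~40-60 min for HSP60/10. After EDTA quench, MDH activity was read as NADH loss at A340. IC50 came from variable-slope regression.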

[3] = target: T2, HSP60/10 (Homo sapiens, UniProt P10809); assay: HSP60/10-mediated dMDH refolding assay; assay type: biochemical; conditions: 37° C., 1 mM ATP, read-out: Biochemical Assay IC50 HSP60/10-dMDH Refolding
T2 construct: octa-Histidine (His8) tag, TEV-cleavable (N, cleaved yes); made in house; host or cells: HSP60 in Rosetta 2 (DE3) E. coli; HSP10 in Rosetta 2 (DE3) pLysS
T2 sequence (P10809 27-573): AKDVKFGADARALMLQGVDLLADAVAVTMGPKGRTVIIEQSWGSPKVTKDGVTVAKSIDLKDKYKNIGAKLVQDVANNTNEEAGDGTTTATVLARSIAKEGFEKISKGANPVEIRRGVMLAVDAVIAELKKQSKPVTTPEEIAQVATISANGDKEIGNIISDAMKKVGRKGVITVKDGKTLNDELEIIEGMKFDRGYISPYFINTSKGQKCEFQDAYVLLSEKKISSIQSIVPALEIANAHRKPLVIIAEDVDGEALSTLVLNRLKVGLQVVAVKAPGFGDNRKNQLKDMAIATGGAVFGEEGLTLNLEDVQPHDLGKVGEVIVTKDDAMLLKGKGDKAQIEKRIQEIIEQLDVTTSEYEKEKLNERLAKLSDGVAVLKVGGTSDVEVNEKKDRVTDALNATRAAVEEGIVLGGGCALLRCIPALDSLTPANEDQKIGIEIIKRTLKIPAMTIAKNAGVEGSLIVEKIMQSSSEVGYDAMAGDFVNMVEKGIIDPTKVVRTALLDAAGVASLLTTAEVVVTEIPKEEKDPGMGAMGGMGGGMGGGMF
Outline: as §1

[4] = Table 2, cation adjusted BHI media, OD600 at 6-8 h
[5] = Table 3, cation adjusted BHI media, OD600 at 6-8 h
[6] = Table 1, cation adjusted BHI media, OD600 at 6-8 h

Structure (SMILES) | IC50 [2] | IC50 ([3]; Table 2) | EC50 [1, 5] | IC50 ([3]; Table 3) | S. aureus Proliferation EC50 [1, 4] | further results
Cc1cc(C(C#N)c2ccc(Cl)cc2)c(Cl)cc1NC(=O)c1cc(Br)ccc1O (centres unmarked) [Compound 50, 5-bromo-N-(5-chloro-4-((4-chlorophenyl)(cyano)methyl)-2-methylphenyl)-2-hydroxybenzamide] | 23 µM | 20 µM |  |  |  | EC50 [1, 4]: 0.11 µM
COc1ccc(Cl)cc1C(=O)Nc1ccc(O)cc1 [Compound 114, 5-chloro-N-(4-hydroxyphenyl)-2-methoxybenzamide] | > 100 µM |  | > 100 µM | > 100 µM |  | 
Cc1cc(C(C#N)c2ccc(Cl)cc2)c(Cl)cc1NC(=O)c1cccc(F)c1 (centres unmarked) [Compound 80, N-(5-chloro-4-((4-chlorophenyl)(cyano)methyl)-2-methylphenyl)-3-fluorobenzamide] | 78 µM | > 100 µM |  |  | > 100 µM | 
COC(=O)c1ccc(NC(=O)c2cc(Cl)ccc2OC)cc1 [Compound 106, methyl 4-(5-chloro-2-methoxybenzamido)benzoate] | 46 µM |  | > 100 µM | > 100 µM |  | 
N#CCc1ccc(NC(=O)c2cc(Cl)ccc2O)cc1 [Compound 111, 5-chloro-N-(4-(cyanomethyl)phenyl)-2-hydroxybenzamide] | > 100 µM |  | > 100 µM | > 100 µM |  | 
COc1ccc(C)cc1C(=O)Nc1cc(Cl)c(C(C#N)c2ccc(Cl)cc2)cc1C (centres unmarked) [Compound 59, N-(5-chloro-4-((4-chlorophenyl)(cyano)methyl)-2-methylphenyl)-2-methoxy-5-methylbenzamide] | 86 µM | > 100 µM |  |  | > 100 µM | 
COc1cc(Cl)ccc1C(=O)Nc1cc(Cl)c(C(C#N)c2ccc(Cl)cc2)cc1C (centres unmarked) [Compound 55, 4-chloro-N-(5-chloro-4-((4-chlorophenyl)(cyano)methyl)-2-methylphenyl)-2-methoxybenzamide] | 59 µM | > 100 µM |  |  | > 100 µM | 
O=C(Nc1ccc(Oc2ccc(Cl)cc2)c(Cl)c1)c1cc(Cl)ccc1O [Compound 87, 5-chloro-N-(3-chloro-4-(4-chlorophenoxy)phenyl)-2-hydroxybenzamide] | 30 µM |  | 0.17 µM | 9.5 µM |  | 
O=C(Nc1ccc(CCc2ccccc2)cc1)c1cc(Cl)ccc1O [Compound 101] | 54 µM |  | 83 µM | 81 µM |  | 
Cc1cc(C(C#N)c2ccc(Cl)cc2)c(Cl)cc1NC(=O)c1ccc(N)cc1 (centres unmarked) [Compound 72, 4-amino-N-(5-chloro-4-((4-chlorophenyl)(cyano)methyl)-2-methylphenyl)benzamide] | 47 µM | 73 µM |  |  | > 100 µM | 
Cc1cc(C(C#N)c2ccc(Cl)cc2)c(Cl)cc1NC(=O)c1ccccc1O (centres unmarked) [Compound 64, N-(5-chloro-4-((4-chlorophenyl)(cyano)methyl)-2-methylphenyl)-2-hydroxybenzamide] | 33 µM | 50 µM |  |  |  | EC50 [1]: 0.28 µM
O=C(Nc1ccc(Oc2ccc(Cl)cc2)cc1)c1cc(Cl)ccc1O [Compound 89, 5-chloro-N-(4-(4-chlorophenoxy)phenyl)-2-hydroxybenzamide] | 46 µM |  | 0.36 µM | 45 µM |  | 
CC(=O)Oc1ccccc1C(=O)Nc1ncc([N+](=O)[O-])s1 [Nitazoxanide, reference compound] | > 100 µM |  |  |  |  | EC50 [1, 6]: 12 µM; IC50 ([3]; Table 1): > 100 µM
O=C(Nc1ccc([N+](=O)[O-])cc1Cl)c1cc(Cl)ccc1O [Niclosamide, reference compound] | > 100 µM |  |  | > 100 µM |  | EC50 [1, 6]: 0.074 µM; IC50 ([2]; read-out: Biochemical Assay IC50 GroEL/ES-dMDH Refolding, Table 3, 37° C., 1 mM ATP): > 100 µM; IC50 ([3]; Table 1): > 100 µM
COc1ccccc1C(=O)Nc1cc(Cl)c(C(C#N)c2ccc(Cl)cc2)cc1C (centres unmarked) [Compound 61, N-(5-chloro-4-((4-chlorophenyl)(cyano)methyl)-2-methylphenyl)-2-methoxybenzamide] | 72 µM | > 100 µM |  |  | > 100 µM | 
COc1ccc(Cl)cc1C(=O)Nc1ccc(Sc2nc3ccccc3s2)c(Cl)c1 [Compound 94, N-(4-(benzo[d]thiazol-2-ylthio)-3-chlorophenyl)-5-chloro-2-methoxybenzamide] | 61 µM |  | > 100 µM | > 100 µM |  | 

Structure (SMILES) | IC50 [2] | IC50 ([3]; Table 2) | EC50 [1, 5] | IC50 ([3]; Table 3) | S. aureus Proliferation EC50 [1, 4] | further results
COc1ccc(NC(=O)c2cc(Cl)ccc2OC)cc1 [Compound 112, 5-chloro-2-methoxy-N-(4-methoxyphenyl)benzamide] | > 100 µM |  | > 100 µM | > 100 µM |  | 
COc1c(Br)cccc1C(=O)Nc1cc(Cl)c(C(C#N)c2ccc(Cl)cc2)cc1C (centres unmarked) [Compound 47, 3-bromo-N-(5-chloro-4-((4-chlorophenyl)(cyano)methyl)-2-methylphenyl)-2-methoxybenzamide] | 49 µM | > 100 µM |  |  | > 100 µM | 
COc1ccc(Cl)cc1C(=O)Nc1ccc(OCc2ccccc2)cc1 [Compound 102, N-(4-(benzyloxy)phenyl)-5-chloro-2-methoxybenzamide] | > 100 µM |  | > 100 µM | > 100 µM |  | 
Cc1cc(C(C#N)c2ccc(Cl)cc2)c(Cl)cc1NC(=O)c1ccc(F)cc1 (centres unmarked) [Compound 81, N-(5-chloro-4-((4-chlorophenyl)(cyano)methyl)-2-methylphenyl)-4-fluorobenzamide] | 77 µM | > 100 µM |  |  | > 100 µM | 
O=C(Nc1ccc(Sc2nc3ccccc3s2)c(Cl)c1)c1cc(Br)cc(Br)c1O [Compound 1, reference compound] | 2 µM |  |  |  |  | EC50 [1, 6]: 0.3 µM; IC50 ([3]; Table 1): 3.7 µM
O=C(Nc1ccc(Sc2nc3ccccc3s2)c(Cl)c1)c1cc(Cl)ccc1O [Compound 95, N-(4-(benzo[d]thiazol-2-ylthio)-3-chlorophenyl)-5-chloro-2-hydroxybenzamide] | 21 µM |  | 0.14 µM | 39 µM |  | 
Cc1cc(C(C#N)c2ccc(Cl)cc2)c(Cl)cc1NC(=O)c1ccc([N+](=O)[O-])cc1 (centres unmarked) [Compound 69, N-(5-chloro-4-((4-chlorophenyl)(cyano)methyl)-2-methylphenyl)-4-nitrobenzamide] | 37 µM | > 100 µM |  |  | > 100 µM | 
O=C(Nc1ccc(OCc2ccccc2)cc1)c1cc(Cl)ccc1O [Compound 103, N-(4-(benzyloxy)phenyl)-5-chloro-2-hydroxybenzamide] | 44 µM |  | > 100 µM | > 100 µM |  | 
COc1ccc(Cl)cc1C(=O)Nc1ccc(Oc2ccccc2)c(Cl)c1 [Compound 90, 5-chloro-N-(3-chloro-4-phenoxyphenyl)-2-methoxybenzamide] | > 100 µM |  | > 100 µM | > 100 µM |  | 
O=C(Nc1ccc(Oc2ccccc2)cc1)c1cc(Cl)ccc1O [Compound 93, 5-chloro-2-hydroxy-N-(4-phenoxyphenyl)benzamide] | 68 µM |  | 0.36 µM | > 100 µM |  | 
Cc1cc(C(C#N)c2ccc(Cl)cc2)c(Cl)cc1NC(=O)c1cccc(N)c1 (centres unmarked) [Compound 71, 3-amino-N-(5-chloro-4-((4-chlorophenyl)(cyano)methyl)-2-methylphenyl)benzamide] | 51 µM | > 100 µM |  |  | > 100 µM | 
O=C(Nc1ccc(Oc2ccccc2)c(Cl)c1)c1cc(Cl)ccc1O [Compound 91, 5-chloro-N-(3-chloro-4-phenoxyphenyl)-2-hydroxybenzamide] | 51 µM |  | 0.21 µM | 22 µM |  | 
Cc1cc(C(C#N)c2ccc(Cl)cc2)c(Cl)cc1NC(=O)c1ccc(Br)cc1 (centres unmarked) [Compound 75, 4-bromo-N-(5-chloro-4-((4-chlorophenyl)(cyano)methyl)-2-methylphenyl)benzamide] | 58 µM | > 100 µM |  |  | > 100 µM | 
COc1c(Cl)cc(Cl)cc1C(=O)Nc1cc(Cl)c(C(C#N)c2ccc(Cl)cc2)cc1C (centres unmarked) [Compound 51, 3,5-dichloro-N-(5-chloro-4-((4-chlorophenyl)(cyano)methyl)-2-methylphenyl)-2-methoxybenzamide] | 38 µM | 86 µM |  |  | > 100 µM | 
Cc1cc(C(C#N)c2ccc(Cl)cc2)c(Cl)cc1NC(=O)c1cccc([N+](=O)[O-])c1 (centres unmarked) [Compound 68, N-(5-chloro-4-((4-chlorophenyl)(cyano)methyl)-2-methylphenyl)-3-nitrobenzamide] | 43 µM | > 100 µM |  |  | > 100 µM | 
COc1ccc(Br)cc1C(=O)Nc1cc(Cl)c(C(C#N)c2ccc(Cl)cc2)cc1C (centres unmarked) [Compound 49, 5-bromo-N-(5-chloro-4-((4-chlorophenyl)(cyano)methyl)-2-methylphenyl)-2-methoxybenzamide] | 71 µM | > 100 µM |  |  | > 100 µM | 
